The numbers were not newly measured in patent US7368585B2, “Synthetic techniques and intermediates for polyhydroxy dienyl lactones and mimics thereof” (The Trustees Of The University Of Pennsylvania, priority 1996, dated 2008), which cites them from elsewhere.

Structures are written as SMILES.

Series [1] has as its system cell development at the M phase. The note with it: by binding and stabilizing mitotic spindle microtubules.
Series [2] has as its system murine splenocytes. The note with it: in vitro.
Series [3] concerns graft-vs.-host splenomegaly response. Conditions: in vivo.
Series [4] relates to mitotic spindle microtubules. Conditions: compared with taxol.
Series [5] has as its system two-way mixed-lymphocyte reaction. The note with it: in vitro.
Series [6] has as its system murine splenocytes. Conditions: in vitro. The source holds these as a separate data set.

As for `C=C/C=C\[C@H](C)[C@H](OC(N)=O)[C@@H](C)[C@H](O)[C@@H](C)C/C(C)=C\[C@H](C)[C@@H](O)[C@@H](C)/C=C\[C@@H](O)C[C@@H]1OC(=O)[C@H](C)[C@@H](O)[C@H]1C` [(+)-discodermolide], the cell cycle effect result in series [1] is reported as “arrests cell development at the M phase”. For the same compound, the “suppression of concanavalin A-induced mitogenesis of murine splenocytes” value in series [2] is “suppresses”. For the same compound, the “potency in graft-vs.-host splenomegaly response relative to cyclosporin A and FK506” value in series [3] (F1 recipient mice) was “intermediate between those of cyclosporin A and FK506”. Moreover, the “suppression of graft-vs.-host splenomegaly response” value in series [3] (injection of parental splenocytes into F1 recipient mice) was “suppresses”. Moreover, the “microtubule binding affinity relative to taxol” value in series [4] is “much higher”. In addition, in series [5], the “suppression of the two-way mixed-lymphocyte reaction” value was “suppresses”. Also, the associated cytotoxicity entry in series [6] is given as “no associated cytotoxicity”.
